Paper PMC6614837 (Nucleic Acids Research, 2019)

Assays:
[1] = tested on: 3'-biotinylated minihelix (Mh; pMini3bpUG) (RNA, hairpin) GAUCUGAAUGCGGAAACGCGCCAC; assay: biolayer interferometry; details: Mg2+ 10 mM, NH4+ 100 mM (ammonium acetate); 20 mM HEPES pH 7.4, DMSO, 30°C; compound 15.6-500 µM
[2] = target: T1, RNase P holoenzyme from Thermotoga maritima (Thermotoga maritima, UniProt Q9X1H4); assay: Real-time fluorescence-based (FRET) RNase P activity assay with minihelix (Mh) substrate; format: biochemical; details: fluorescent Mh substrate 270 nM, holoenzyme 33 nM, 10% DMSO, 37°C, 400 mM AmOAc, 100 mM MgCl2
T1 construct: made in house
T1 sequence (Q9X1H4 1-117): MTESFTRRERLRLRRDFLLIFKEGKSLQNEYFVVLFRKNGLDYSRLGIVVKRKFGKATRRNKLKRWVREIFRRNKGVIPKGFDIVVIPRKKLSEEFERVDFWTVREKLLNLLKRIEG
Method: (§1) The reconstitution of the RNase P holoenzyme was performed as described in ([40],[19]). This protocol produces a homogeneous and functional ribozyme that can be crystallized by mixing P RNA and P protein in a 1:1.1 molar ratio in 1× TH buffer (33 mM Tris–HCl, 66 mM HEPES, pH 7.4) and 400 mM ammonium acetate (AmOAc). The mixture was heated to 95°C for 2 min in a water bath, then chilled on ice for 2 min, after which MgCl2 was added to a final concentration of 100 mM. […] This higher concentration was used in all experiments described herein. The holoenzyme was further incubated at 50°C for 10 min and 37°C for 40 min. The final concentration of holoenzyme was 333 nM (35.6 μg/ml of P RNA and 4.7 μg/ml of P protein).
The minihelix (Mh) substrate (Figure 1A) was adopted from a previously characterized RNase P substrate, pMini3bpUG ([32],[33]) and coupled to either Black Hole Quencher 1 (BHQ1) or Black Hole Quencher 2 (BHQ2) at the 5′-end and Alexa Fluor 488 at the 3′-end. This probe was purchased either from Sigma-Aldrich or Integrated DNA Technologies (IDT). A requested scale of […] yielded between 6.3 and 20 nmol (57.5 to 181 μg, enough for 1300–4000 reactions depending on the experimental substrate concentration). Before use, the minihelix was diluted from a 100 μM stock (dissolved in water) to 3.6 μM in activity buffer H (33 mM Tris–HCl, 66 mM HEPES, pH 7.4, 400 mM AmOAc and 100 mM MgCl2).
(§2) Reactions were performed in a total volume of 20 μl. Pipetting was done by hand using multichannel pipettes. First, an 18 μl reaction mixture containing 16.5 μl of activity buffer (H for Mh or L supplemented with 10% PEG 200 for bipartite pre-tRNA) and 270 nM (Mh) or 135 nM (bipartite pre-tRNA) (1.5 or 0.7 μl of the 3.6 μM stock) of the fluorescent substrate probe was pre-incubated on ice for at least 5 m in a black polystyrene 384-well microtiter microplate with a flat transparent bottom (Corning ref 3540). The holoenzyme was then added at a final concentration of 33 nM (2 μl of a 333 nM stock) in 1× TH buffer and mixed. Kinetic activity was monitored in a Synergy MX Multimode Detector (BioTek) at 37°C with rapid agitation. At least 20 readings were taken per well every 15 s. The probe was excited at 485 nm, and its emission was monitored at 535 nm with an integration time of 1 s. From the plots of relative fluorescent units (RFU) versus time, linear regression was used to determine the slopes in the linear portion of the curves, using at least 12 data points to obtain initial velocities. Non-linear fitting to obtain the Michaelis–Menten parameters was performed using GraphPad Prism® 6.01 software.
Supplementary Figure 3. FRET assays of RNase P with the fluorescent substrate are reproducible. (A) Representative plots of kinetic assays performed in a single run. The standard assay (SA), (+), was performed at 37° C in a total volume of 20 µL and contained RNase P holoenzyme at 33 nM, substrate minihelix (Mh) at 270 nM, 10% DMSO and activity buffer (AB).
The negative control assay (-) contained 100 mM CaCl2 in place of MgCl2. Ten to twelve wells were monitored simultaneously in a typical assay. (B) Zoomed view of the linear region of the kinetic assays shown in panel A. Fluorescence readings were performed every 15-20 seconds.
Linear regression calculations were done using the GraphPad Prism 7 software. (C) The coefficient Z’-factor (1) was used as an indicator of reproducibility and was calculated based on the relative fluorescence units (RFU) in the plateau phase (taken at 20 minutes). The Z’-factor has a […]
presented in this work were either measured in triplicate or confirmed in subsequent assays. (D) […]
assay is robust. The IC50 values reported in Figures 1C and 2 were calculated according to this kinetic parameter. There is a negative drift in fluorescence in the case of the negative control.
However, it should be noted that the mean value of it (-279) is much smaller than the signal of the […]
positive control (3397). […]

[3] = target: T1, RNase P holoenzyme from Thermotoga maritima; assay: Real-time fluorescence-based RNase P activity assay with bipartite pre-tRNA substrate; format: biochemical; details: fluorescent bipartite pre-tRNA substrate, holoenzyme 33 nM, 10% PEG 200 in place of DMSO
Method: as §1
The bipartite pre-tRNA substrate derived from pre-tRNA^Phe from T. maritima (Supplementary Figure S13) was designed for the ease of chemical synthesis and conceived from the fact that the anticodon loop is not required for RNase P recognition (Reiter et al.). As for the Mh substrate, fluorescent bipartite pre-tRNA was coupled to Black Hole Quencher 1 (BHQ1) at the 5′-end of the 5′ oligo, and to Alexa Fluor 488 at the 3′-end of the 3′ oligo (see Supplementary Table S1). The probes were purchased from Integrated DNA Technologies (IDT). A requested scale of 250 nmol yielded 27.4 nmol (0.36 mg) for the 5′ oligo and 3.8 nmol (50 μg) for the 3′ fluorescent oligo. Before use, the probes were diluted from a 100 μM stock (dissolved in water) and assembled by mixing and heating to 3.6 μM in activity buffer L (Tris–HCl pH 7.4 33 mM, HEPES 66 mM, 100 mM AmOAc and 10 mM MgCl2).
as §2, with “software. […]” for “software.”

CN(C)c1ccc(C(=C2C=CC(=[N+](C)C)C=C2)c2ccc(N(C)C)cc2)cc1 [Gentian violet, tris(4-(dimethylamino)phenyl)methylium chloride, reference compound]
KD [1]: 8 µM | IC50 [2]: 7.3 ± 1.6 µM | IC50 [3]: 16.2 ± 2.1 µM
